Measured values: patent US20230293630A1, “Coronavirus T Cell Epitopes and Uses Thereof” (priority 2020, published 2023)
Read-outs that look alike come from different tables or passages of the source.

Tested on: SARS-CoV-2-specific CD4+ T cells (OX40+CD137+) in PBMC
Format: cell-based, human
[1] = CD4+ T cell epitopes identified by AIM assay, share of donors responding
[2] = CD4+ T cell epitopes identified by AIM assay, sum of response per responding donor
[3] = CD4+ T cell epitopes identified by AIM assay, total response
[4] = CD4+ T cell epitopes identified by AIM assay, percent of tested donors responding
[5] = CD4+ T cell epitopes identified by AIM assay, total response summed over donors

Row | Sequence | Frequency of response (%) [1] | Magnitude by # of responding donors [2] | Sum of response [3] | Frequency of response (%) [4] | Sum of response [5] | Frequency of response (%) | Magnitude by # of responding donors | Sum of response
1 | CVADYSVLYNSASFS | 8% | 210 | 210 | – | – | – | – | –
2 | KHFYWFFSNYLKRRV [SEQ ID NO 244] | 8% | 959 | 959 | – | – | – | – | –
3 | VNARLRAKHYVYIGD | 8% | 116 | 116 | – | – | – | – | –
4 | HWFVTQRNFYEPQII | 7% | 598 | 598 | – | – | – | – | –
5 | YVVDDPCPIHFYSKW | 36% | 872 | 3488 | – | – | – | – | –
6 | GVPINTNSSPDDQIG | 8% | 108 | 108 | – | – | – | – | –
7 | NTVKSVGKFCLEASF | 8% | 113 | 113 | – | – | – | – | –
8 | WPQIAQFAPSASAFF | 33% | 376 | 1503 | – | – | – | – | –
9 | YREAACCHLAKALND | 8% | 109 | 109 | – | – | – | – | –
10 | TFTRSTNSRIKASMP | 8% | 120 | 120 | – | – | – | – | –
11 | LYIIKLIFLWLLWPV | 13% | 199 | 397 | – | – | – | – | –
12 | FNICQAVTANVNALL | 6% | 220 | 220 | – | – | – | – | –
13 | FTVEKGIYQTSNFRV | – | 1202 | – | 9% | 1202 | – | – | –
14 | PQNQRNAPRITFGGP | 6% | 222 | 222 | – | – | – | – | –
15 | LGDIAARDLICAQKF | 8% | 153 | 153 | – | – | – | – | –
16 | TTVAAFHQECSLQSC | 18% | 1008 | 2016 | – | – | – | – | –
17 | VSSQCVNLTTRTQLP | 8% | 274 | 274 | – | – | – | – | –
18 | VTKNSKVQIGEYTFE | 8% | 118 | 118 | – | – | – | – | –
19 | GIVNNTVYDPLQPEL | 7% | 164 | 164 | – | – | – | – | –
20 | FGTTLDSKTQSLLIV | 9% | 174 | 174 | – | – | – | – | –

Row | Sequence | Frequency of response (%) [1] | Magnitude by # of responding donors [2] | Sum of response [3] | Frequency of response (%) [4] | Sum of response [5] | Frequency of response (%) | Magnitude by # of responding donors | Sum of response
21 | YDANYFLCWHTNCYD | 7% | 209 | 209 | – | – | – | – | –
22 | IVRFPNITNLCPFGE | – | 107 | – | 9% | 107 | – | – | –
23 | LNTDHSSSSDNIALL | 8% | 568 | 568 | – | – | – | – | –
24 | LGRCDIKDLPKEITV | 25% | 313 | 938 | – | – | – | – | –
25 | FLHFLPRVFSAVGNI | 9% | 491 | 491 | – | – | – | – | –
26 | RYLALYNKYKYFSGA | 15% | 708 | 1415 | – | – | – | – | –
27 | WNSNNLDSKVGGNYN | 9% | 101 | 101 | – | – | – | – | –
28 | DFLEYHDVRVVLDFI | 18% | 341 | 681 | – | – | – | – | –
29 | IAATRGATVVIGTSK | 6% | 117 | 117 | – | – | – | – | –
30 | VRIIMRLWLCWKCRS | 14% | 131 | 261 | – | – | – | – | –
31 | GAVILRGHLRIAGHH | 8% | 512 | 512 | – | – | – | – | –
32 | FVSGNCDVVIGIVNN | 7% | 180 | 180 | – | – | – | – | –
33 | CAQKFNGLTVLPPLL | – | 741 | – | 9% | 741 | – | – | –
34 | NAPRITFGGPSDSTG | 6% | 259 | 259 | – | – | – | – | –
35 | AENSVAYSNNSIAIP | 17% | 403 | 805 | – | – | – | – | –
36 | EIYQAGSTPCNGVEG | 8% | 1121 | 1121 | – | – | – | – | –
37 | ESDDYIATNGPLKVG | 8% | 133 | 133 | – | – | – | – | –
38 | AQYTSALLAGTITSG | – | 336 | – | 9% | 336 | – | – | –
39 | WDLTAFGLVAEWFLA | 8% | 134 | 134 | – | – | – | – | –
40 | HKNNKSWMESEFRVY | 9% | 572 | 572 | – | – | – | – | –

Row | Sequence | Frequency of response (%) [1] | Magnitude by # of responding donors [2] | Sum of response [3] | Frequency of response (%) [4] | Sum of response [5] | Frequency of response (%) | Magnitude by # of responding donors | Sum of response
41 | QRNFYEPQIITTDNT | 7% | 302 | 302 | – | – | – | – | –
42 | CNLLLLFVTVYSHLL | 18% | 212 | 424 | – | – | – | – | –
43 | VIRGDEVRQIAPGQT | 9% | 180 | 180 | – | – | – | – | –
44 | VNNSYECDIPIGAGI | 11% | 398 | 398 | – | – | – | – | –
45 | YYRRATRRIRGGDGK | 23% | 197 | 592 | – | – | – | – | –
46 | FSNSGSDVLYQPPQT | 8% | 149 | 149 | – | – | – | – | –
47 | IKDLPKEITVATSRT | 23% | 258 | 774 | – | – | – | – | –
48 | LYENQKLIANQFNSA | 7% | 195 | 195 | – | – | – | – | –
49 | SHRFYRLANECAQVL | 6% | 535 | 535 | – | – | – | – | –
50 | RGHLRIAGHHLGRCD | 42% | 472 | 2359 | – | – | – | – | –
51 | KEITVATSRTLSYYK | 54% | 516 | 3615 | – | – | – | – | –
52 | VYYPDKVFRSSVLHS | 15% | 198 | 395 | – | – | – | – | –
53 | MFTPLVPFWITIAYI | 8% | 602 | 602 | – | – | – | – | –
54 | RLFARTRSMWSFNPE | 8% | 141 | 141 | – | – | – | – | –
55 | YPKCDRAMPNMLRIM | 7% | 153 | 153 | – | – | – | – | –
56 | TPPIKDFGGFNFSQI | 8% | 421 | 421 | – | – | – | – | –
57 | QYGDCLGDIAARDLI | 8% | 152 | 152 | – | – | – | – | –
58 | LPPLLTDEMIAQYTS | 9% | 153 | 153 | – | – | – | – | –
59 | CLVGLMWLSYFIASF | – | – | – | – | – | 33% | 295 | 1181
